Data taken from publication PMC11343376, “In vivo pharmacokinetics of ginsenoside compound K mediated by gut microbiota” (PLOS ONE, 2024).
Like-named read-outs stand apart in the source and are kept apart here.

Columns and labels:
[1] = Freeze/thaw and long-term stability of QC samples in rat plasma; assay type: physicochemical; settings: n = 6; for Freeze/thaw stability Accuracy: frozen –80°C / thawed 25°C three cycles; for long-term stability Accuracy: –80°C for thirty days
Method: The LQC, MQC, and HQC samples were stored at –80°C for thirty days. The employed samples were tested to assess long-term stability. Six replicates of all QC samples were frozen at –80°C and thawed at 25°C for three cycles, which were then determined to assess the freeze/thaw cycle stability. The variabilities of precision and accuracy should be within15%.

[2] = Pharmacokinetics of GCK in SPF and pseudo-GF rats after single oral administration (LC-MS/MS of plasma); assay type: in vivo, Sprague-Dawley (SD) rats; settings: for AUC(0-inf) / Tmax / half-life / AUC(0-t) / CL/F / MRT last / Vd/F / Cmax: Sprague-Dawley, rat, plasma, po, 22.5 mg/kg, GCK 22.5 mg/kg single oral dose; for AUC(0-t): read-out: AUC (0–11); for CL/F: read-out: CLz/F (converted); for MRT last: read-out: MRT(0–11); for Vd/F: read-out: Vz/F; for Cmax: rat plasma, n = 7, mean ± SD
Method: SD rats were randomly divided into two groups: normal control group (SPF group, n = 7) and pseudo-GF group (n = 7). To deplete the gut microbiota, a solution of ampicillin (50 mg/kg), vancomycin (25 mg/kg), neomycin sulfate (50 mg/kg), and metronidazole (50 mg/kg) were orally administered. Fresh antibiotic concoction with fed ampicillin in water (0.25 g/L) were prepared every day for a week. The feces were collected three days after withdrawal, and then the gut bacterial DNA was extracted with a stool DNA kit (Omega, D4015-01) and measured by Nonodrop 3000 spectrophotometer (Shimadzu, Japan).
The mass spectrometer analysis was performed on QTRAP 6500^+ low mass spectrometers. The Phenomenex LUNA C18 (2) Reversed Phase (Phenomenex, 150 × 2.0 mm, i.d., 5 μm) was used for the chromatographic separation with a mobile phase of acetonitrile (A) and the aqueous phase of 2 mM ammonium acetate (B) at a flow rate of 0.3 mL/min. The gradient elution procedure was set at 0−2 min: 20%A, 2−3 min: 20−65%A, 3−4 min: 65−75%A, 4−5 min: 75−90%A, 5−6 min: 90−100%A, and the re-equilibration time was set for 5 mins with 20%A after gradient elution. The tailing factors under the selected chromatographic conditions were calculated as 0.993 and 0.996 for GCK and PPD, respectively, while the theoretical plates were measured as 1.13 × 10^4. The injection volume was 10 μL with the temperature of column at 40°C. The mass spectrometer parameters were optimized as follow, Curtain Gas (CUR), 35; collision gas, 9;, ionspray voltage,-4500 V; temperature, 450°C; curtain gas, 35 psi; ion source gas 1, 50 psi; ion source gas 2, 55 psi. Both GCK and PPD were analyzed in multiple reaction monitoring (MRM) mode, shown as Fig 1.
After fasted for 12 h, all animals were once orally administrated with a medium dose of GCK (22.5 mg/kg) in 0.9% normal saline. Blood samples were collected from the tail vein at 0 h, 0.5 h, 1 h, 1.5 h, 2.5 h, 3 h, 3.5 h, 4 h, 5 h, 6 h, 7 h, 9.5 h, and 11 h after oral administration. All blood samples were immediately centrifuged at 4000 rpm for 20 min at 4°C. Approximate 100 μL of supernatant was collected and stored at -80°C for analysis. Non-compartmental model analysis was operated on DAS 2.0 software of the Chinese Pharmacological Society, and pharmacokinetic parameters were calculated accordingly.
The blood samples (50 μL) were mixed with 150 μL of digoxin solution (Internal standard (IS), 3.33 ng/mL), subsequently vortex-mixed and centrifuged at 1.4 × 10^4 rpm (4°C) to remove the precipitated proteins for 10 min, respectively. Finally, 100 μL of supernatant was subjected to LC-MS/ MS analysis.
Pharmacokinetics parameters including AUC, terminal elimination half-life (T1/2), mean retention time (MRT), apparent distribution volume (Vz/ F), and clearance rate (CL) were calculated using non-compartmental model analysis (DAS 2.0 software, Chinese Pharmacological Association, China). Other parameters, such as maximum plasma concentration (Cmax) and time to maximum plasma concentration (Tmax), were obtained directly from the plasma concentration-time diagram. All data were expressed as mean ± SD. Significant differences were marked by the symbols ** p < 0.01, *** p < 0.001, and **** p < 0.0001.

[3] = set-up: method as in PMID 28955238; settings: human plasma, single dose of oral GCK; ref [14]; cited from earlier work
[4] = high QC (GCK 552, PPD 456 ng/mL)
[5] = low QC (GCK 10.8, PPD 8.91 ng/mL)
[6] = middle QC (GCK 86.3, PPD 71.3 ng/mL)
[7] = pseudo-GF rats compared with SPF rats

CC(C)=CCC[C@](C)(O)[C@H]1CC[C@]2(C)[C@@H]1[C@H](O)C[C@@H]1[C@@]3(C)CC[C@H](O)C(C)(C)[C@@H]3CC[C@]12C [PPD, protopanaxadiol]
Freeze/thaw stability Accuracy [1, 4]: 89.65% | Freeze/thaw stability Accuracy [1, 5]: 92.44% | Freeze/thaw stability Accuracy [1, 6]: 93.50% | long-term stability Accuracy [1, 4]: 101.93% | long-term stability Accuracy [1, 5]: 96.17% | long-term stability Accuracy [1, 6]: 97.83% | Detection of the metabolite PPD in rat plasma ([2]; after single oral GCK 22.5 mg/kg, both SPF and pseudo-GF groups, LLOQ 4.45 ng/mL): not detected | Cmax of PPD [3]: ~4.2 ng/mL | T1/2 of PPD [3]: more than 19 hours | Tmax of PPD [3]: ~25 h

CC(C)=CCCC(C)(OC1OC(CO)C(O)C(O)C1O)C1CCC2(C)C1C(O)CC1C3(C)CCC(O)C(C)(C)C3CCC12C (stereo not drawn) [GCK, Ginsenoside Compound K]
Freeze/thaw stability Accuracy [1, 4]: 104.11% | Freeze/thaw stability Accuracy [1, 5]: 102.76% | Freeze/thaw stability Accuracy [1, 6]: 106.47% | long-term stability Accuracy [1, 4]: 103.91% | long-term stability Accuracy [1, 5]: 95.56% | long-term stability Accuracy [1, 6]: 103.32% | AUC(0-inf) ([2]; SPF group): 679 ± 284 ng·h/mL | Tmax ([2]; SPF group): 3.36 ± 1.25 h | half-life ([2]; SPF group): 2.2 ± 1.69 h | AUC(0-t) ([2]; SPF group): 586 ± 161 ng·h/mL | CL/F ([2]; SPF group): 632 mL/min/kg | MRT last ([2]; SPF group): 4.16 ± 1.11 h | Vd/F ([2]; SPF group): 96.5 ± 44.9 L/kg | Cmax ([2]; SPF group): 162 ± 46.9 ng/mL | AUC(0-inf) ([2]; pseudo-GF group): 2300 ± 1630 ng·h/mL | Tmax ([2]; pseudo-GF group): 5.86 ± 1.35 h | half-life ([2]; pseudo-GF group): 3.93 ± 1.65 h | AUC(0-t) ([2]; pseudo-GF group): 1340 ± 402 ng·h/mL | CL/F ([2]; pseudo-GF group): 226 mL/min/kg | MRT last ([2]; pseudo-GF group): 6.05 ± 0.42 h | Vd/F ([2]; pseudo-GF group): 63.2 ± 15.4 L/kg | Cmax ([2]; pseudo-GF group): 259 ± 70 ng/mL | AUC increased ([2]; pseudo-GF group compared with SPF group): approximately twice | AUC 0–11 increased by [2, 7]: 1.3 times | Cmax times higher than that of SPF rats [2, 7]: 1.6 times | CLz/F decreased by ([2]; pseudo-GF rats compared with SPF rats, P <0.01): 0.6 times
